Common to all, as to assay type: cell-based
For one test, the system named is human IgG antibodies. In words: In vitro inhibition of human IgG antibody production (lymphocytes + IL-4 + anti CD40Ab + IL-10, ELISA). To be noted: Lymphocyte, 3 μM. The method, then: (§1) According to the method described in J. Immunol., 146:1836-1842, 1991 and J. Immunol., 147:8-13, 1991, the concentrations of IgE and IgG antibodies were measured by the procedures described below.
(§2) Peripheral venous blood was sampled from the healthy person, and submitted to density-gradient centrifugation to isolate lymphocytes. The lymphocytes thus obtained were washed and suspended in a culture medium (RPMI-1640 (provided by Gibco)+10% heat-inactivated FCS (Whittaker)+100 µg/ml streptomycin+100 U/ml penicillin+2mM L-glutamine). The cell suspensions were cultured for 1 week in the presence/absence of the compounds of this invention at the concentrations as described in Tables 3-1 to 3-2 together with human interleukin 4 (IL-4, Genzyme)([…]), anti CD40 antibodies (anti CD40Ab, Biosource, clone B-B20)([…]) and human interleukin 10 (IL-10, Genzyme)([…]). The culture medium was supplied freshly to the cell suspension, and the mixture was further cultured for another week. The supernatant was sampled and the concentrations of IgE and IgG antibodies therein were measured by sandwich ELISA.
(§3) The ELISA was based, for the assay of IgE antibodies, on the use of rabbit anti-human IgE() antibodies (ICN) as the primary antibody and biotin-linked anti-human IgE monoclonal antibodies (G7-26, PharMingen) as the secondary antibody. For the assay of IgG antibodies, anti-human IgG monoclonal antibodies (G18-145, PharMingen) and biotin-linked donkey anti-human IgG antibodies (H+L)(Jackson) were used for the primary and secondary antibodies, respectively. For the assay of both IgE and IgG antibodies, Avidin-Biotin-Horse Radish Peroxidase (ABC kit, Vector Lab) and TMB (3,3',5,5'-tetramethylbenzidine) microwell peroxidase substrate system (Kirkegaard & Perry Laboratories Inc.) were used as the enzyme and the substrate, respectively. The assays were made by the use of conventionally known ELISA.
(§4) The inhibitory effect (%) of a given compound of this invention on the production of the antibody was calculated with respect to the concentration of the same antibody when the compound was not coexistent (refer to Uejima et al., American Academy of Allergy and Immunology, Proceedings of 1995 Annual Meeting, Program No. 818).
For orientation: In an ELISA, binding on a coated surface is turned into a signal by an enzyme label.

For another test, the system named is TF (tissue factor). In words: Inhibitory effects on the TF production in LPS-stimulated human peripheral blood monocytes. To be noted: Monocyte, LPS 1 μg/ml, 16 hours. The procedure: Peripheral venous blood was sampled from the healthy person, and submitted to density-gradient centrifugation so that monocytes might be isolated. The monocytes thus obtained were washed with minimum essential medium (MEM, Gibco) and suspended in a culture medium (RPMI-1640(Gibco)+25 mM HEPES buffer+100 μg/ml streptomycin+100 U/ml penicillin G+2 mM L-glutamine) to give a suspension with a density of 1×10^6 cells/ml. A 0.15 ml of the cell suspension was placed onto each of the wells of a 96-well microplate, to which the compound of this invention as described in Tables 4-1 to 4-2 was added (0.05 ml of the culture medium), and the assembly was placed for 1 hour in a CO2 incubator for cultivation. Then, LPS (lipopolysaccarides, E. coli 0111B4, Difco) 1 μg/ml was added thereto, and the assembly was further cultured for 16 hours. After the supernatant being removed, the residue was washed with physiological saline, 0.1 ml of 16 mM OG (n-octyl-β-D-glucopyranoside) was added thereto, and the assembly was stirred to make TF soluble. A 0.2 ml of physiological saline was added to each residue (final dilution was […]) and this preparation was used for determination of the coagulation stimulating activity (TF-like activity). The test compound had been dissolved in DMSO to give a 0.1 M solution which was diluted with the culture medium prior to use. The final concentration of DMSO was 0.01% or less.
To each well of the microplate, 50 μl of human plasma and 50 μl of the test sample prepared as above for determination of the coagulation stimulating activity, or 50 μl of standard thromboplastin (human thromboplastin, Thromborel S, Behringwerke) were added. The microplate was incubated at 37° C. for 5 minutes, to which was added 25 mM CaCl2 (50 μl/well) containing phosphorous lipids (Platelin, Organon Teknica) at a concentration of […] to initiate coagulation. Coagulation was determined on the basis of absorption at 540 nm, and the measurement lasted 7 to 20 minutes. The data were analyzed with a data analyzing software SOFTMax (Molecular Devices) and the maximum rate time was taken as the coagulation time. The logarithmic values of the coagulation times and standard thromboplastin concentrations are plotted, and a regression parabola was drawn among the dots to give a test curve. From the curve, the inhibitory effect (%) of a given test compound on TF production was calculated. (Refer to J. Imnmunol. Methods, 133:21-29, 1990, and Proc. Natl. Acad. Sci. USA, 89:10370-10374, 1992).

The test system of another test is human IgE antibodies. The test is described as follows: In vitro inhibition of the production of human IgE antibodies (lymphocytes + IL-4 + anti CD40Ab + IL-10, ELISA). The note with it: Lymphocyte, 3 μM, read-out: Inhibition of antibody production (%) IgE. The procedure:
as §1, §2, §3, §4

Three compounds from patent US5945450A, “Naphthalene derivative” (Teijin Limited, priority 1994, dated 1999) can be followed below.

What is called inhibition is the drop in the measured response relative to a control, in per cent.

For the compound `N#Cc1ccccc1NC(=O)c1ccc(Sc2ccc3ccccc3c2)cc1` [Compound No. 3103, 2-(4-(2-naphtylthio)benzamide)benzonitrile], the inhibition at 3 µM with human IgG antibodies is 3.5%; in the test with TF (tissue factor), 77.9%; in the test on human IgE antibodies, 41.9%.

Take `COc1ccc2cc(Oc3ccc(C(=O)Nc4ccccc4C(=O)O)cc3)ccc2c1` [compound 1204]: the inhibition at 3 µM in the test with human IgG antibodies is -11.4%; with TF (tissue factor), 100%; with human IgE antibodies, 64%. Further, the inhibition at 1 µM with TF (tissue factor) (1 μM) amounted to 75.7%. Besides, the inhibition at 10 µM in the test with TF (tissue factor) (10 μM) turned out to be 100%.

Turning to `O=C(Nc1ccccc1C(=O)O)c1ccc(Oc2ccc3ccccc3c2)c([N+](=O)[O-])c1` [compound 1116], the inhibition at 3 µM in the test with human IgG antibodies was 36.9%; in the test on TF (tissue factor), 96.6%; with human IgE antibodies it was 93%.
